From US4666897A, “Inhibition of mammalian collagenolytic enzymes by tetracyclines” (Research Foundation of State University, priority 1983, dated 1987)

Tests used:
[1] = target: T1, rat PMNL collagenolytic activity (PMNL collagenase) (Rattus norvegicus, UniProt O88766); experiment: Rat PMNL collagenolytic activity in vitro (14C-collagen gel lysis); format: biochemical
T1 construct: An extract of PMNLs was prepared; from tissue; host or cells: extract of peritoneal exudate polymorphonuclear leucocytes of non-diabetic rats, elicited with glycogen
T1 sequence (O88766 102-466): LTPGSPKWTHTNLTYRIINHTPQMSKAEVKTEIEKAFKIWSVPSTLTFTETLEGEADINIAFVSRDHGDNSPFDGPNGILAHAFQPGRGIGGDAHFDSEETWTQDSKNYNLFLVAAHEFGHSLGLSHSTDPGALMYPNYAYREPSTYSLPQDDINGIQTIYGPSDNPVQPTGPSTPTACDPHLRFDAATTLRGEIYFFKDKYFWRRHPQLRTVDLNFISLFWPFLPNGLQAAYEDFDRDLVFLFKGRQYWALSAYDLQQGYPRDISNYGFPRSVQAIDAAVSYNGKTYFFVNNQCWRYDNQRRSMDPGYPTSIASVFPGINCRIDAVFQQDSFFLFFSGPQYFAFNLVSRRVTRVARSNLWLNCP
Description: To test the effect of physiologic levels of minocycline (the concentration in human serum, during a therapeutic regimen, is approximately 2 ug/ml; that in the gingival crevicular fluid is 4-5 times greater; Ciancio, et. al., 1980, J. Periodontol., 51, 531-534) on mammalian collagenolytic activity in vitro, peritonealexudate polymorphomuclear leucocytes (PMNLs) were collected from 15 mole (non-diabetic) rats 4 hours after I.P. injection of 0.15% glycogen. An extract of PMNLs was prepared, 250 μl aliquots of this extract were incubated with ^14 C-glycine labeled collagen fibrils for 14 hours at 35° C. (in the presence or absence of minocycline, or EDTA, or additional CaCl2), and collagenolytic activity was measured as described by Nicoll, et al., (Experientia., 37, 315-317).
The techniques used to measure the collagenolytic enzyme activity of gingival tissue in culture, and in polymorphonuclear leucocytes (PMNLs), are those described by Golub, et. al., (J. Dent. Res., 57, 520-525 (197)8) and Nicoll, et. al., (Experimentia, 37, 315-317, (1981)) with minor modifications.

[2] = tested on: gingival collagenolytic enzyme activity of diabetic rats; experiment: Collagenolytic enzyme activity in extracts of gingiva from diabetic rats given minocycline; format: in vivo, rat; conditions: for Gingival Collagenolytic Activity (% C^14-Collagen Degraded): diabetes + oral daily drug
Description: Rats were made diabetic chemically with the agent streptozotocin. Some of the diabetic rats (half were administered minocycline orally on a daily basis) were killed 15 days, or 28 days, or 56 days after inducing diabetes and the gingiva were dissected, the tissues were extracted, and the extracts partially purified by ammonium sulfate precipitation. The partially purified enzyme preparation from the gingiva of a group of non-diabetic (control) rats, and the diabetic rats, was incubated at 37° C. in vitro with radiolabeled collagen fibrils to assess collagenolytic ennzyme activity.

[3] = tested on: GCF collagenase and gingival disease in diabetic twins; experiment: Human gingival crevicular fluid (GCF) study, diabetic twin brothers; format: in vivo; conditions: 7 days of treatment
Description: In a separate study involving humans, gingival crevicular fluid (GCF) samples were collected on filter paper strips inserted into 8 interproximal pockets of selected teeth in the maxillary arch of two twin brothers with juvenile-onset (insulin-dependent) diabetes mellitus. Fluid volume was immediately determined on a modified Periotron (Model 6000, Harco Electronics Ltd., Winnipeg, Canada); then incubated with 10 μl (^3 H-methyl) collagen (20,675 DPM) and 70 μl buffer (50 mM Tris-HCl, pH 7.8, containing 0.2 M sodium chloride and 5 mM calcium chloride). The GCF samples (or reagent blanks or trypsin controls) were incubated at 27° C. for 18 hours with gentle shaking. The reaction was stopped and undigested collagen precipitated by adding 10 μl 0.1 M phenanthroline in dioxane/water (1:1, v/v), 10 μl of nonradioactive methylated carrier collagen (2 mg/ml) in 50 mM Tris-HCl buffer containing 1M NaCl (pH 7.0), and 100 μl dioxane. After mixing, the radiolabeled collagen degradation products were collected by filtration and counted in a liquid scintillation spectrometer (Golub, et. al., 1976, J. Dent. Res., 55, 1049). Using this technique, the reaction blank (no enzyme or GCF added) released about 10% of the total substrate counts; 2-20 ng bacterial collagenase produced a linear increase in the release of radioactive counts from the ^3 H-collagen substrate (the 20 ng level of enzyme degraded 60% of the collagen substrate); and 50 ng trypsin released less than 1% of the counts above blank values. GCF collagenase activity was expressed as units of equivalent activity of vertebrate collagenase (obtained from New England Nuclear, Cat. No. NEK-016); 1 unit was operationally defined as the amount of enzyme that degrades 1 μg of collagen per hour at 27° C.
Four additional GCF samples were collected from other maxillary pockets of the same diabetic twin brothers on filter paper strips, their volume determined (see above), and collagenolytic activity assessed using the same procedure described above but with a different substrate (10 μl of (^3 H-propionate) collagen, NET-660, New England Nuclear Corp., Boston, Mass., 302,000 DPM).
Half of the 12 GCF samples per subject were activated by pretreatment with 1.04 uM trypsin followed by the addition of a 5-fold molar excess of soybean trypsin inhibitor. Samples were selected to be treated or not treated with trypsin by matching them for Gingival Index (Loe and Silness, Acta. Odont. Scand., 21, 533-551 (1967)), GCF flow, and for pocket depth; the clincal parameters (GI, PD) were measured immediately after GCF collection. All measurements were carried out immediately before antibiotic coverage and after 7 days of treatment with either pencillin G (lg. per day; patient three) or the tetracycline minocycline (200 mg/day; patient one).

[4] = penicillin G 1 g per day (P. D.) or minocycline 200 mg/day (K. D.)

CN(C)c1ccc(O)c2c1C[C@H]1C[C@H]3[C@H](N(C)C)C(O)=C(C(N)=O)C(=O)[C@@]3(O)C(O)=C1C2=O [minocycline, Minocycline]
effect on PMNL collagenolytic (collagenase) activity, in words ([1]; Table 1): almost complete inhibition
Collagenolytic Activity: % ^14 C-collagen gel lysed ([1]; Table 1, PMNL extract + 5 μg/ml, control extract 85.5): 12.4%
Collagenolytic Activity: % ^14 C-collagen gel lysed ([1]; Table 1, PMNL extract + 20 μg/ml + CaCl2 10 mM): 38.5%
Collagenolytic Activity: % ^14 C-collagen gel lysed ([1]; Table 1, PMNL extract + 20 μg/ml + CaCl2 50 mM): 82.1%
Collagenolytic Activity: % ^14 C-collagen gel lysed ([1]; Table 1, PMNL extract + 20 μg/ml, control extract 85.5): 8.3%
Collagenolytic Activity: % ^14 C-collagen gel lyzed ([1]; Table 2, PMNL extract (30 × 10^6 PMNLs per ml) + 20 ug/ml, control extract 39.0): 4.0%
% Inhibition of Collagenolytic Activity by Minocycline ([2]; 15 days): 42.5%
% Inhibition of Collagenolytic Activity by Minocycline ([2]; 28 days): 72.7%
% Inhibition of Collagenolytic Activity by Minocycline ([2]; 56 days): 77.2%
Gingival Collagenolytic Activity (% C^14-Collagen Degraded) ([2]; 15 days, untreated diabetic 50.4, control 9.1): 29.0%
Gingival Collagenolytic Activity (% C^14-Collagen Degraded) ([2]; 28 days, untreated diabetic 63.0, control 9.1): 17.2%
Gingival Collagenolytic Activity (% C^14-Collagen Degraded) ([2]; 56 days, untreated diabetic 47.8, control 9.1): 10.9%
GCF flow [3, 4]: significant reductions
Gram-positive and Gram-negative organisms in the pockets [3, 4]: marked reduction in Gram-negative
active GCF collagenase [3, 4]: significant reductions
pocket depth [3, 4]: no decrease
total GCF collagenase (after trypsin pretreatment) [3, 4]: significant reductions
Gingival Index (G. I.) ([3]; penicillin G 1 g per day (patient three) or minocycline 200 mg/day (patient one)): significant reductions
